Substitutions are numbered along the chain they refer to. The source made the active and inactive calls. The calls are words filed in the database; no cut-off is given here. Some results are limits rather than exact numbers.

As usually defined, the inhibition is the relative decrease from the control value, in per cent. One may read the Cmax as the maximum level reached in the sampled fluid or tissue. What is called IC50 is the concentration needed to halve the response being measured. Higher therefore signals weaker potency in that assay. What is called MRT is the average time that molecules of a dose stay in the body. What is called clearance is the volume of plasma or blood freed of the substance per unit of time. A lower clearance goes with a low capacity for elimination. The EC50 is the midpoint of the concentration-response curve. What is called efflux ratio is the permeability from basolateral to apical divided by that in the opposite direction, in the common usage. A word on the fraction unbound: it is the share of the substance not bound to proteins or other matrix. The low end stands for little free substance, the high end for much free substance. As usually defined, the chromatographic logD is a lipophilicity value derived from retention on a column. Low readings indicate a more hydrophilic compound, high ones a more lipophilic compound.

In data set [1] the target is T1, CYP2C8 (Homo sapiens, UniProt P10632).
T1 sequence (P10632 whole entry): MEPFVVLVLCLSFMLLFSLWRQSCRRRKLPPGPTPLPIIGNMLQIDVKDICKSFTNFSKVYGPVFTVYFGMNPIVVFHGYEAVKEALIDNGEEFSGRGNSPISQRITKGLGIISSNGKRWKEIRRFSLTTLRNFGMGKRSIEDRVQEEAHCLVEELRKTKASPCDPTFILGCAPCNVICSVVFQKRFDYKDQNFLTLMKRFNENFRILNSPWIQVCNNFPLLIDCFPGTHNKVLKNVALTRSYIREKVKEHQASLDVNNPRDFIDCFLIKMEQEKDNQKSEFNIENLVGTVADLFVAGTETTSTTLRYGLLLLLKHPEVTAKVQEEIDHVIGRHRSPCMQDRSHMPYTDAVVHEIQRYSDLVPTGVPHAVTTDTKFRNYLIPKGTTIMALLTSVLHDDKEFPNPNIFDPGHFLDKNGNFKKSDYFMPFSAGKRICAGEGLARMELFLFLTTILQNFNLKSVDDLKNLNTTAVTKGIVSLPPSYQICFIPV
The experiment in a line: Inhibition of CYP2C8 in human liver microsomes using paclitaxel as substrate at 10 uM in presence of NADPH generating system incubated for 10 mins. The format is ADME. The note with it: probe paclitaxel. (Liver microsomes are vesicles of endoplasmic reticulum, rich in cytochrome P450 enzymes.)

Data set [2] in a line: Selectivity index, ratio of IC50 for mouse GCS to IC50 for human GCS.
Data set [3] addresses Nav1.5 (Homo sapiens, UniProt Q14524). The data set can be described thus: Inhibition of human Nav1.5 at 30 uM by automated whole cell patch clamp assay. The format is toxicity. For orientation: In patch-clamp work, channel activity is measured electrically.
Data set [4] can be described thus: Cardiotoxicity in human iPSC-derived cardiomyocytes assessed as minimum effective concentration required for intracellular calcium transients-mediated proarrhythmic activity by Fluo-4 dye based fluorescence analysis. The class given is toxicity. The conditions noted are these: cardiac muscle cell.
Data set [5] concerns the target CYP2C9 (Homo sapiens, UniProt P11712). The experiment in a line: Inhibition of CYP2C9 in human liver microsomes using tolbutamide as substrate at 10 uM in presence of NADPH generating system incubated for 10 mins. The class given is ADME. The conditions noted are these: probe tolbutamide.
Data set [6] addresses Cav1.2 (Homo sapiens, UniProt Q13936). The experiment in a line: Inhibition of human Cav1.2 expressed in HEK293 cells at 30 uM by automated electrophysiology QPatch HT assay. The note with it: HEK293 cells expressing Cav1.2. The class given is toxicity, cell-based.
Data set [7] can be described thus: Cmax in non-fasted ICR mouse at 5 mg/kg, po by LC-MS/MS analysis. The format is ADME, organism-based. The note with it: in vivo. Also noted: route oral, dose 5 mg/kg.
The target of data set [8] is hERG (Homo sapiens, UniProt Q12809). The data set can be described thus: Inhibition of hERG expressed in CHO-K1 cells at 30 uM by automated whole cell patch clamp assay. The class given is toxicity, cell-based. The note with it: CHO-K1 cells expressing hERG. For orientation: The hERG channel carries a current that helps repolarise heart muscle cells.
hERG, sequence (Q12809 whole entry): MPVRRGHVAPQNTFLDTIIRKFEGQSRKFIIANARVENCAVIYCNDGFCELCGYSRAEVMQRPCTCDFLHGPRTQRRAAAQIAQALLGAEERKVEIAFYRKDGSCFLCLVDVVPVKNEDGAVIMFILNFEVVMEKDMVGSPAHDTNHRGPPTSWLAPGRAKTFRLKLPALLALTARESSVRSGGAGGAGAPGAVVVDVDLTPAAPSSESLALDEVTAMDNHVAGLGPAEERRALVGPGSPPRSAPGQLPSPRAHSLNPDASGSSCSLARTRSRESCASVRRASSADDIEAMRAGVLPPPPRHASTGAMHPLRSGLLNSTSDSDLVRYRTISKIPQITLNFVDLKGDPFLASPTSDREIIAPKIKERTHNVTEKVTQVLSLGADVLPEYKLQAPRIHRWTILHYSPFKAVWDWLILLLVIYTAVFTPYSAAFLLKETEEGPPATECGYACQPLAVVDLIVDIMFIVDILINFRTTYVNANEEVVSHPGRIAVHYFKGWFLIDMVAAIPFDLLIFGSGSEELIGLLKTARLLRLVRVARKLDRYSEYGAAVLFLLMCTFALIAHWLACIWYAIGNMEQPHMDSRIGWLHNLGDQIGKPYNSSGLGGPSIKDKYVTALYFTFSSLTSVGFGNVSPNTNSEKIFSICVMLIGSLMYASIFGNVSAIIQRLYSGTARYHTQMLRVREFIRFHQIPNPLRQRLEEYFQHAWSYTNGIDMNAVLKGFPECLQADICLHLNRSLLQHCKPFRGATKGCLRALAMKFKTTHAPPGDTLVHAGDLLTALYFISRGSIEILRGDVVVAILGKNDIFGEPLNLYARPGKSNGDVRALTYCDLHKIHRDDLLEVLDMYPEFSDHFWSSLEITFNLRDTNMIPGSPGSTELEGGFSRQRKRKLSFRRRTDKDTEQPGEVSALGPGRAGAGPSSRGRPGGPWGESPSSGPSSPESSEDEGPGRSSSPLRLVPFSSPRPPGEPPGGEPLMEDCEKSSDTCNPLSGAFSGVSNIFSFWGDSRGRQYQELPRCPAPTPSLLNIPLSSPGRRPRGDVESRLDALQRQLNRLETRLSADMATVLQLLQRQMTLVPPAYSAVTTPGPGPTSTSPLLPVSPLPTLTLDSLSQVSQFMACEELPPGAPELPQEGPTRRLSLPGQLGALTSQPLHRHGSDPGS
Data set [9] has as its system Mus musculus. The experiment in a line: In vivo inhibition of GCS activity in po dosed C57BL/6J mouse assessed as reduction in GlcCer level in plasma measured after 6 hrs. The format is functional, organism-based. The note with it: dose 30-300 mg/kg.
Data set [10] concerns the target T2, Ceramide glucosyltransferase (Mus musculus, UniProt O88693).
T2 sequence (O88693 whole entry): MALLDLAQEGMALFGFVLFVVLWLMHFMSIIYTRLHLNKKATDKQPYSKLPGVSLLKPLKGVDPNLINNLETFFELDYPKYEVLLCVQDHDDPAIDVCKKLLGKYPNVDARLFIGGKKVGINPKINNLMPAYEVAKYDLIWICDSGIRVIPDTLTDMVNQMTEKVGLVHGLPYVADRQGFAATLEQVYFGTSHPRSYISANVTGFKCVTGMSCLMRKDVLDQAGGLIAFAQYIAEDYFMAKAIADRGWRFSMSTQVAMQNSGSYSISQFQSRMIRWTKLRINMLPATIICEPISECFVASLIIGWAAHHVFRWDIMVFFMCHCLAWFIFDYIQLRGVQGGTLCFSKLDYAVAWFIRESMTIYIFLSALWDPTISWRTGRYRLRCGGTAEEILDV
The experiment in a line: Inhibition of mouse GCS using C8-ceramide and UDP-glucose as substrate incubated for 1 hr by RapidFire mass spectrometry.

Data set [11] in a line: MRT in non-fasted ICR mouse at 0.5 mg/kg, iv by LC-MS/MS analysis. The class given is ADME, organism-based. The conditions noted are these: in vivo.
Data set [12] in a line: Plasma clearance in non-fasted ICR mouse at 0.5 mg/kg, iv by LC-MS/MS analysis. The format is ADME, organism-based.
Data set [13] deals with Sodium-dependent serotonin transporter (Homo sapiens, UniProt P31645). The data set can be described thus: Inhibition of human SERT. The format is toxicity.
Sodium-dependent serotonin transporter, sequence (P31645 whole entry): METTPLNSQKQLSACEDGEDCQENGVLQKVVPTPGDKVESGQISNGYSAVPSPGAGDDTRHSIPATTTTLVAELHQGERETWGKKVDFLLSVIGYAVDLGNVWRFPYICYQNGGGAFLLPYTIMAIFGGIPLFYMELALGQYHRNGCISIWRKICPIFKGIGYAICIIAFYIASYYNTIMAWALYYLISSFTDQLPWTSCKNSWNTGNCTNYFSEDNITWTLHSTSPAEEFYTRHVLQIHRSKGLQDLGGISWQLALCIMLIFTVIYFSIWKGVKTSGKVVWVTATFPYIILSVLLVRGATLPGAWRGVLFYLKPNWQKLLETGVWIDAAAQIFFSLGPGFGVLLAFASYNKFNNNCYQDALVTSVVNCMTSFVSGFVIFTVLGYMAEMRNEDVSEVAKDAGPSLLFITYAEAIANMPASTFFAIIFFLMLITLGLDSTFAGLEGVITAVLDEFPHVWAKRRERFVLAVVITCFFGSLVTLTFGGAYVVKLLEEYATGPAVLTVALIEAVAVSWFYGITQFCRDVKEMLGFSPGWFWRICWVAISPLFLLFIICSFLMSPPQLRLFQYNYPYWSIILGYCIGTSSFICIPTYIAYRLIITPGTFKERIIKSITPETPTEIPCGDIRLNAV
Data set [14] addresses Ceramide glucosyltransferase (Homo sapiens, UniProt Q16739). The experiment in a line: Inhibition of GCS in GBA mutant human fibroblasts assessed as reduction in glucosylceramide level incubated for 4 days by RapdiFire-MS/MS analysis. The format is cell-based. The conditions noted are these: fibroblast.
Data set [15] is described as follows: Efflux ratio of apparent permeability from basolateral to apical side over apical to basolateral side in dog MDCK-MDR1 cells at 1 uM measured after 1 hr by LC-MS/MS analysis. The class given is ADME, cell-based, Canis lupus familiaris.
In data set [16] the target is T3, Ceramide glucosyltransferase (Homo sapiens) (UniProt Q16739).
T3 sequence (whole entry): T2 sequence (O88693 whole entry) with Q8L, L13V, V20L, S29A, A131G, S196Y, S251A
The data set can be described thus: Non-competitive inhibition of GCS (unknown origin) using 1 to 70 uM C8-ceramide and 0.1 to 200 uM UDP-glucose as substrate incubated for 1 hr by RapidFire mass spectrometry.

A short description of data set [17]: Fraction unbound in plasma of non-fasted ICR mouse at 30 mg/kg, po measured after 1 hr by LC-MS/MS analysis. The format is ADME, organism-based.
Data set [18] in a line: Volume of distribution at steady state in non-fasted ICR mouse at 0.5 mg/kg, iv by LC-MS/MS analysis. The class given is ADME, organism-based. The conditions noted are these: in vivo, read-out: Vdss.
The nature of data set [19]: MRT in non-fasted ICR mouse at 5 mg/kg, po by LC-MS/MS analysis. The format is ADME, organism-based. The note with it: in vivo.
A short description of data set [20]: 1-Octanol/aqueous buffer partition coefficient, logD of the compound at pH 7.4 by chromatographic method. The class given is physicochemical.

CYP2C9, sequence (P11712 whole entry): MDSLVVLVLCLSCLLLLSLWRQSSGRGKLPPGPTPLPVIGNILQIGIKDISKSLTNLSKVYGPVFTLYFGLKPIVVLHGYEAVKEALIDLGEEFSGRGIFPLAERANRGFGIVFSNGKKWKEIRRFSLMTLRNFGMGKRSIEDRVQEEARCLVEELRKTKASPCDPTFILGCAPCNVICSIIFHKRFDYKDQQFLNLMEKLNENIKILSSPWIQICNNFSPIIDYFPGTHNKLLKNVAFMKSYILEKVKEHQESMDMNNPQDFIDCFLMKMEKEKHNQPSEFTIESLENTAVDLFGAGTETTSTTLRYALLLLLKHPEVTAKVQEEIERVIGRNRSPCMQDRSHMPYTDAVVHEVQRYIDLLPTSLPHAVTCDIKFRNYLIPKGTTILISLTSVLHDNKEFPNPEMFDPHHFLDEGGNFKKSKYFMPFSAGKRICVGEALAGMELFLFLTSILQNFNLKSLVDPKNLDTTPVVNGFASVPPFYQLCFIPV
Ceramide glucosyltransferase (Homo sapiens, UniProt Q16739), sequence (Q16739 whole entry, looked up, change not shown): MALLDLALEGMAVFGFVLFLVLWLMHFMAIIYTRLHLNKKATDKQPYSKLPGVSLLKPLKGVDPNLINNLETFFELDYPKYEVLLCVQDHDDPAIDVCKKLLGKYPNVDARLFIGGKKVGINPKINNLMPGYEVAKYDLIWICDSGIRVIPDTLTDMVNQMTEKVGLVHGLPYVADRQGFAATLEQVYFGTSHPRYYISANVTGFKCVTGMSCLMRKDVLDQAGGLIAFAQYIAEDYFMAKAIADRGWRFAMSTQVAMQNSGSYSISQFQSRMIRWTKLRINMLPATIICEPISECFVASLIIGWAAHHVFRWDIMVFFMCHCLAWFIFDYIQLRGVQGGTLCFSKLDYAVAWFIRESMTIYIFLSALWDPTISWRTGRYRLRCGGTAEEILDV
Cav1.2, sequence (Q13936 whole entry): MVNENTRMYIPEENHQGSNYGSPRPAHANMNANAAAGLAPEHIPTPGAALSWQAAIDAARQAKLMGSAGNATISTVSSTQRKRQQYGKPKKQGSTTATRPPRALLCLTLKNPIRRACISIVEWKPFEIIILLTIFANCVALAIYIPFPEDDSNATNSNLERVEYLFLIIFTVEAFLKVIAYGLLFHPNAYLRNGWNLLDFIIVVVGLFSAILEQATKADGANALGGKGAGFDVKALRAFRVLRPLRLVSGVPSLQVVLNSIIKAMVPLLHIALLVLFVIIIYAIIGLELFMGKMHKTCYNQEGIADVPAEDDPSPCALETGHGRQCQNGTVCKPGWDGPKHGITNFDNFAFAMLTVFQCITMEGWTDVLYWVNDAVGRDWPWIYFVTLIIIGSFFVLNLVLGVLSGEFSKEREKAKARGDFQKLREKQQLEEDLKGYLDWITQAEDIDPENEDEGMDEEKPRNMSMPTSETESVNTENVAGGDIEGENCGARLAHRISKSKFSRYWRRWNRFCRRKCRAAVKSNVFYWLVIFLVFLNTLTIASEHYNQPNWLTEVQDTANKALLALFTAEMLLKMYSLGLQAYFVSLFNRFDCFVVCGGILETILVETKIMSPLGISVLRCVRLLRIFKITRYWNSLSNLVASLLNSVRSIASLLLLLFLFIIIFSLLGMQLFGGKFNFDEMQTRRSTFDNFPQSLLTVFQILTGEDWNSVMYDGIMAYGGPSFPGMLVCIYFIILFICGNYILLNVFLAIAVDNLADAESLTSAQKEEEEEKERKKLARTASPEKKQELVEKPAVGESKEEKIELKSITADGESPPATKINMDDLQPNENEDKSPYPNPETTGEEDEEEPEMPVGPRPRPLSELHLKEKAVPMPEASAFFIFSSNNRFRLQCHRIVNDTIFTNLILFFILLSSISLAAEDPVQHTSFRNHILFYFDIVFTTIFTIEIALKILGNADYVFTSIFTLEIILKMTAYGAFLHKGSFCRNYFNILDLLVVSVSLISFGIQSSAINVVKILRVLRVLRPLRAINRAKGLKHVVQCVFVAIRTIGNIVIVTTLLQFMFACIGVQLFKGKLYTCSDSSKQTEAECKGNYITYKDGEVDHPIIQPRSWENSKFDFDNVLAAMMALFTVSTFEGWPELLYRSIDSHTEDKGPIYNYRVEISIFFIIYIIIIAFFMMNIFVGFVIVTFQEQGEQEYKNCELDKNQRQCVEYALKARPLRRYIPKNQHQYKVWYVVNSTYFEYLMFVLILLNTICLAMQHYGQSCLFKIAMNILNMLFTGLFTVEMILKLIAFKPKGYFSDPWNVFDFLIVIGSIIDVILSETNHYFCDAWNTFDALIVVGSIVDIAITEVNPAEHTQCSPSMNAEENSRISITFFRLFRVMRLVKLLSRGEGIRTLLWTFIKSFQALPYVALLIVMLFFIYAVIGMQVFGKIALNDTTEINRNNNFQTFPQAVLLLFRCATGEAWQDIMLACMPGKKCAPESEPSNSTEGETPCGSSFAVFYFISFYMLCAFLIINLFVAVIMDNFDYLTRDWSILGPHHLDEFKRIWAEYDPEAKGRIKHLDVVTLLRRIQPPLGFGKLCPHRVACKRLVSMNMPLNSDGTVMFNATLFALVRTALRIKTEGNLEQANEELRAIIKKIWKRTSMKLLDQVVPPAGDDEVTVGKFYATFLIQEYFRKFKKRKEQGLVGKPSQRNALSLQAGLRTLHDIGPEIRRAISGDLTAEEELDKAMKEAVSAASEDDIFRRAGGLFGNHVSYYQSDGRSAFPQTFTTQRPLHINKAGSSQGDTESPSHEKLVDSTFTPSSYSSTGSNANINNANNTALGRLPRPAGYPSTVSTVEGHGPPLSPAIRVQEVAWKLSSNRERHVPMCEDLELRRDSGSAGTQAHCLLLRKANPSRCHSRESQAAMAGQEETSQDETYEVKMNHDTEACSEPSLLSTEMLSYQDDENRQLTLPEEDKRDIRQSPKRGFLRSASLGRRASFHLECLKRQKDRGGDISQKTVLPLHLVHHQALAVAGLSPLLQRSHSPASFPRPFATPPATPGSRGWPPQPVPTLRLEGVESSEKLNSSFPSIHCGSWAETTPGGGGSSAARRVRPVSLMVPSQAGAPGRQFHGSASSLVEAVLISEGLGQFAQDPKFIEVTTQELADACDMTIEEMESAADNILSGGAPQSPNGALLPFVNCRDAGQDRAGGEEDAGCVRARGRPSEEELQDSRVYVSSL

Regarding `CC(C)(O)c1ccc(NC(=O)c2ccnn(-c3ccccc3OCC(F)(F)F)c2=O)cc1`, the inhibition at 10 min, 10 µM in data set [1] was determined as 34.2%; in data set [5], 24.9%. Also, in [2], the Ratio IC50 was found to be 12.7. Further, the inhibition at 30 µM in data set [3] is 20%; in data set [6], 7.3%; in data set [8] it was 8%. Besides, in data set [4], the MEC is greater than 10 µM. This molecule also had a maximum concentration (Cmax) in data set [7] of 416 ng/mL. In addition, the inhibition result in data set [9] was “Dose-Dependent Effect”. Besides, the IC50 in data set [10] is 190 nM; in data set [13], greater than 10000 nM. Moreover, the MRT was found to be 1.03 h in data set [11] and 1.91 h in [19]. The molecule also had a clearance in data set [12] of 33.7 mL/min/kg. The EC50 in data set [14] was determined as 4.4 nM. Further, in data set [15], the efflux ratio at 1 h, 1 µM is 8.8. Also, the inhibition entry in data set [16] was “Active”. In addition, in data set [17], the unbound share (fraction unbound) at 1 h is 0.23. Besides, the Vd in [18] came out at 1.97 L/kg. This molecule also displayed a chromatographic logD in [20] of 2.42.

For the origin of these results see ChEMBL document CHEMBL5046282, “Discovery of Brain-Penetrant Glucosylceramide Synthase Inhibitors with a Novel Pharmacophore” (J Med Chem, 2022).
